Results published in patent US9278958B2, “Anti-cancer compounds” (KATHOLIEKE UNIVERSITEIT LEUVEN, priority 2012, dated 2016).
Like-named read-outs stand apart in the source and are kept apart here. One block for each compound: values may come before it.

Key:
[1] = test system: OST TK- osteosarcoma cells; assay: Cytostatic assay, OST TK-; assay type: cell-based; conditions: Homo sapiens; Table 3
Method in brief: (§1)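 Read-out is the cell number after incubation, counted electronically (Coulter). Cultures started from 5-7.5×10^4 cells per well exposed to compound, kept 48 h to 96 h at 37° C under humidified CO2 control.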

[2] = test system: HeLa cervix carcinoma cells; assay: Cytostatic assay, HeLa; assay type: cell-based, human; conditions: Homo sapiens; Table 3; read-out: Cytostatic activity (μM) Hela
Method in brief: as §1

[3] = test system: PNT1A (UZ) prostate cells; assay: Cytostatic assay, PNT1A (UZ); assay type: cell-based; conditions: Homo sapiens, Table 4
Method in brief: as §1

[4] = test system: PC3 (rega) prostate cancer cells; assay: Cytostatic assay, PC3 (rega); assay type: cell-based; conditions: Table 4
Method in brief: as §1

[5] = test system: DU145 (UZ) prostate cancer cells; assay: Cytostatic assay, DU145 (UZ); assay type: cell-based; conditions: Homo sapiens, DU-145; Table 4
Method in brief: as §1

[6] = test system: DNA synthesis in CEM cells; assay: Antimetabolic activity assay, [CH3-3H]dThd incorporation (DNA synthesis), CEM; assay type: cell-based; conditions: Homo sapiens, CCRF-CEM, incorporation into TCA-insoluble material
Method: (§2) Radiolabeled precursors of DNA synthesis ([^3H-methyl]dThd), RNA synthesis ([5-^3H]Urd), and protein synthesis ([4,5-^3H]leu) were added to 10^5 CEM cell cultures in the 200 μl-wells of a microtiter plate at 1 μCi for each precursor in the presence of varying concentrations of the test compounds (5-fold dilution series). The cells were allowed to proliferate for 20 hrs at 37° C. in a humidified, CO2-controlled atmosphere. At the end of the incubation period, the contents of the wells were brought onto 25-mm glass fiber filters and further processed for measurement of acid-insoluble radioactivity.

[7] = test system: Raji, human B-lymphoma cells; assay: Cytostatic assay, Raji; assay type: cell-based; conditions: Table 2
Method in brief: as §1

[8] = test system: HUT-78 cells; assay: Cytostatic assay, HUT-78; assay type: cell-based; conditions: Homo sapiens, HuT78; Table 2
Method in brief: as §1

[9] = test system: U87 CD4+/CXCR4+/CCR5+ glioma cells; assay: Cytostatic assay, U87 CD4+/CXCR4+/CCR5+; assay type: cell-based; conditions: Homo sapiens, Glioma cell; Table 3
Method: (§3) To each well of a 96-well microtiter plate were added 5-7.5×10^4 cells and a given amount of the test compound. The cells were allowed to proliferate for 48 h to 96 h (depending on the nature of the cell line) at 37° C. in a humidified CO2-controlled atmosphere. At the end of the incubation period, the cells were counted in a Coulter Counter (Coulter Electronics Ltd, Harpenden Herts, United Kingdom).

[10] = test system: Daudi, human B-lymphoma cells; assay: Cytostatic assay, Daudi; assay type: cell-based; conditions: Table 2
Method: as §3

[11] = test system: MCF-7 mammary carcinoma cells; assay: Cytostatic assay, MCF-7; assay type: cell-based; conditions: Homo sapiens, MCF7; Table 3
Method in brief: as §1

[12] = test system: BAEC aortic endothelial cells; assay: Cytostatic assay, BAEC; assay type: cell-based, bovine; conditions: Bos taurus, Table 3
Method in brief: as §1

[13] = test system: PC-3 (UZ) prostate cancer cells; assay: Cytostatic assay, PC-3 (UZ); assay type: cell-based; conditions: Table 4
Method in brief: as §1

[14] = test system: LNCaP (UZ) prostate cancer cells; assay: Cytostatic assay, LNCaP (UZ); assay type: cell-based; conditions: Homo sapiens, Table 4
Method in brief: as §1

[15] = test system: FM3A mammary carcinoma cells; assay: Cytostatic assay, FM3A; assay type: cell-based, murine; conditions: Mus musculus, Table 3
Method in brief: as §1

[16] = test system: THP-1, human monocytic cells; assay: Cytostatic assay, THP-1; assay type: cell-based; conditions: Table 2
Method in brief: as §1

[17] = test system: broad variety of tumor cell lines; assay: Cytostatic assays, summary over the panel of cell lines (Tables 2-4); assay type: cell-based
Method: as §3

[18] = test system: DNA synthesis in Raji cells; assay: Antimetabolic activity assay, [CH3-3H]dThd incorporation (DNA synthesis), Raji; assay type: cell-based; conditions: Homo sapiens, incorporation into TCA-insoluble material
Method: [The procedure below names another cell line; the source lists this cell line under the same test.] as §2

[19] = test system: Molt4/C8 cells; assay: Cytostatic assay, Molt4/C8; assay type: cell-based; conditions: Table 2
Method in brief: as §1

[20] = test system: HL60, human leukemia cells; assay: Cytostatic assay, HL-60; assay type: cell-based; conditions: Table 2
Method in brief: as §1

[21] = test system: protein synthesis in CEM cells; assay: Antimetabolic activity assay, [4,5-3H]leucine incorporation (protein synthesis), CEM; assay type: cell-based; conditions: Homo sapiens, CCRF-CEM, incorporation into TCA-insoluble material
Method: as §2

[22] = test system: CEM cells; assay: Cytostatic assay, CEM; assay type: cell-based; conditions: Homo sapiens, CCRF-CEM
Method in brief: as §1

[23] = test system: 293T embryonic kidney cells; assay: Cytostatic assay, 293T; assay type: cell-based; conditions: Homo sapiens, HEK-293T; Table 3
Method in brief: as §1

[24] = test system: BPH-1 (UZ); assay: Cytostatic assay, BPH-1 (UZ); assay type: cell-based; conditions: Homo sapiens, Table 4
Method in brief: as §1

[25] = test system: Huh-7 hepatoma cells; assay: Cytostatic assay, Huh-7; assay type: cell-based; conditions: Homo sapiens, Table 4
Method in brief: as §1

[26] = test system: Caki-1 kidney carcinoma cells; assay: Cytostatic assay, Caki-1; assay type: cell-based; conditions: Homo sapiens, Table 3
Method in brief: as §1

[27] = test system: HepG2C3A hepatoma cells; assay: Cytostatic assay, HepG2C3A; assay type: cell-based; conditions: Homo sapiens, HepG2/C3A; Table 4
Method in brief: as §1

[28] = test system: 22Rv1 (UZ) prostate cancer cells; assay: Cytostatic assay, 22Rv1 (UZ); assay type: cell-based; conditions: Homo sapiens, Table 4
Method in brief: as §1

[29] = test system: MT-4 cells; assay: Cytostatic assay, MT-4; assay type: cell-based; conditions: Homo sapiens, MT4; Table 2
Method in brief: as §1

[30] = test system: HEL embryonic lung fibroblast cells; assay: Cytostatic assay, HEL; assay type: cell-based; conditions: Homo sapiens, Table 3
Method in brief: as §1

[31] = test system: MT-2 cells; assay: Cytostatic assay, MT-2; assay type: cell-based; conditions: Homo sapiens, MT2; Table 2
Method in brief: as §1

[32] = test system: C8166 cells; assay: Cytostatic assay, C8166; assay type: cell-based; conditions: Homo sapiens, Table 2
Method in brief: as §1

[33] = test system: U87 glioma cells; assay: Cytostatic assay, U87; assay type: cell-based; conditions: Homo sapiens, U-87 MG; Table 3
Method in brief: as §1

[34] = test system: U937, human monocytic cells; assay: Cytostatic assay, U937; assay type: cell-based; conditions: U-937, Table 2
Method in brief: as §1

[35] = test system: RNA synthesis in Raji cells; assay: Antimetabolic activity assay, [5-3H]uridine incorporation (RNA synthesis), Raji; assay type: cell-based; conditions: Homo sapiens, incorporation into TCA-insoluble material
Method: [The procedure below names another cell line; the source lists this cell line under the same test.] as §2

[36] = test system: HOS CD4+ osteosarcoma cells; assay: Cytostatic assay, HOS CD4+; assay type: cell-based; conditions: Homo sapiens; Table 3
Method: as §3

[37] = test system: HT29 colorectal carcinoma cells; assay: Cytostatic assay, HT29; assay type: cell-based; conditions: Homo sapiens, HT-29; Table 3
Method in brief: as §1

[38] = test system: RNA synthesis in CEM cells; assay: Antimetabolic activity assay, [5-3H]uridine incorporation (RNA synthesis), CEM; assay type: cell-based; conditions: Homo sapiens, CCRF-CEM, incorporation into TCA-insoluble material
Method: as §2

[39] = test system: Caki-2 kidney carcinoma cells; assay: Cytostatic assay, Caki-2; assay type: cell-based; conditions: Homo sapiens, Table 3
Method in brief: as §1

[40] = test system: protein synthesis in Raji cells; assay: Antimetabolic activity assay, [4,5-3H]leucine incorporation (protein synthesis), Raji; assay type: cell-based; conditions: Homo sapiens, incorporation into TCA-insoluble material
Method: [The procedure below names another cell line; the source lists this cell line under the same test.] as §2

[41] = test system: Sup T1 cells; assay: Cytostatic assay, Sup T1; assay type: cell-based; conditions: Homo sapiens, Table 2, read-out: Cytostatic activity (μM) Sup T 1
Method in brief: as §1

[42] = test system: PLC/PRF/5 hepatoma cells; assay: Cytostatic assay, PLC/PRF/5; assay type: cell-based; conditions: Homo sapiens, Table 4
Method in brief: as §1

[43] = test system: L1210 cells; assay: Cytostatic assay, L1210; assay type: cell-based; conditions: Mus musculus, Table 2
Method in brief: as §1

[44] = Table 1a, read-out: IC50 μM (CEM)
[45] = Table 2, read-out: Cytostatic activity (μM) CEM

IC50 [1]: 7.6 ± 2.4 µM | IC50 [2]: 17 ± 2.1 µM | IC50 [3]: 17 ± 2.8 µM | IC50 [4]: 0.71 ± 0.28 µM | IC50 [5]: 11 ± 7 µM | IC50 [6]: 6.4 ± 4.1 µM | IC50 [7]: 19 ± 4.2 µM | IC50 [8]: 13 ± 4.2 µM | IC50 [9]: 32 ± 2.1 µM | IC50 [10]: 13 ± 0.71 µM | IC50 [11]: 22 ± 3.5 µM | IC50 [12]: 20 ± 4.2 µM | IC50 [13]: 1.4 ± 0.071 µM | IC50 [14]: 0.43 ± 0.14 µM | IC50 [15]: 37 ± 0.71 µM | IC50 [16]: 13 ± 1.4 µM | IC50 ([17]; Homo sapiens, HuT78, range for the seven compounds, MT-4 and HUT-78 cells, read-out: IC50 range, cytostatic activity against MT-4 and HUT-78 cells): 8500 to 60000 nM | IC50 ([17]; range for the seven compounds against the 5 tumor cell lines, read-out: IC50 range, cytostatic activity against CEM, Molt4/C8, Sup T1, MT-2 and C8166 cells): 220 to 3400 nM | IC50 [18]: 54 ± 8 µM | IC50 [19]: 0.81 ± 0.49 µM | IC50 [20]: 4 ± 3.3 µM | IC50 [21]: 1.4 ± 0.9 µM | IC50 [22, 44]: 1.8 µM | IC50 [22, 45]: 1.8 ± 0.92 µM | IC50 [24]: 39 ± 2.8 µM | IC50 [25]: 3.4 ± 1.2 µM | IC50 [26]: 3.7 ± 1.8 µM | IC50 [27]: 8.6 ± 0.28 µM | IC50 [28]: 5.7 ± 2.8 µM | IC50 [31]: 2.1 ± 0.071 µM | IC50 [32]: 3 ± 0.21 µM | IC50 [33]: 38 µM | IC50 [34]: 10 ± 0.85 µM | IC50 [35]: 68 ± 8 µM | IC50 [36]: 23 ± 4.2 µM | IC50 [37]: 17 ± 7.8 µM | IC50 [38]: 2.6 ± 0.6 µM | IC50 [39]: 4.5 ± 1.9 µM | IC50 [40]: 45 ± 8 µM | IC50 [41]: 1.5 µM | IC50 [42]: 18 ± 4.2 µM
SMILES: COC(=O)c1cc(CCc2ccccc2OC)sc1N [TR567, 2-Amino-5-[2-(2-methoxy-phenyl)-ethyl]-thiophene-3-carboxylic acid methyl ester]
IC50 [23]: 22 ± 15 µM | IC50 [29]: 14 ± 2.8 µM | IC50 [30]: 20 ± 7.8 µM

IC50 [2]: 0.13 ± 0.06 µM | IC50 [3]: < 0.032 µM | IC50 [4]: < 0.032 µM | IC50 [5]: 0.061 ± 0.016 µM | IC50 [6]: > 100 µM | IC50 [7]: 0.063 ± 0.013 µM | IC50 [8]: 0.062 ± 0.039 µM | IC50 [11]: 0.026 ± 0.0014 µM | IC50 [12]: < 0.032 µM | IC50 [13]: < 0.032 µM | IC50 [14]: < 0.032 µM | IC50 [15]: 0.05 ± 0.046 µM | IC50 [16]: 0.022 ± 0.003 µM | IC50 ([17]; range over the cell lines of Tables 2-4, read-out: IC50 range (antiproliferative activity)): 20 to 130 nM | IC50 [18]: ≥ 100 µM | IC50 [19]: 0.058 ± 0.056 µM | IC50 [20]: 0.024 ± 0.004 µM | IC50 [21]: 20 µM | IC50 [22, 44]: 0.015 µM | IC50 [22, 45]: 0.015 µM | IC50 [24]: < 0.032 µM | IC50 [25]: < 0.16 µM | IC50 [26]: 0.016 ± 0.001 µM | IC50 [27]: 0.29 ± 0.18 µM | IC50 [28]: < 0.032 µM | IC50 [31]: 0.027 ± 0.001 µM | IC50 [32]: 0.021 ± 0.009 µM | IC50 [43]: 0.064 ± 0.025 µM | IC50 [33]: 0.038 ± 0.008 µM | IC50 [34]: 0.036 ± 0.001 µM | IC50 [35]: 90 ± 14 µM | IC50 [37]: 0.046 ± 0.012 µM | IC50 [38]: 44 ± 11 µM | IC50 [39]: 0.042 ± 0.004 µM | IC50 [40]: 39 ± 36 µM | IC50 [41]: 0.017 ± 0.012 µM | IC50 [42]: 0.041 ± 0.013 µM
SMILES: COc1ccc(OC)c(CCc2cc(C#N)c(N)s2)c1 [TR589, 2-Amino-5-[2-(2,5-dimethoxy-phenyl)-ethyl]-thiophene-3-carbonitrile]
fold more cytostatic than the corresponding -COOEt-containing compound 16b [17]: 50 fold | IC50 [23]: < 0.032 µM | IC50 [29]: 0.086 ± 0.048 µM | IC50 [30]: < 0.032 µM
